# According to US20250171434A1, “SEC61 INHIBITORS AND USE THEREOF” (KEZAR LIFE SCIENCES, INC., priority 2022, published 2025):
# Experiments:
# [1] = system: PD1-ss+10aa/Gaussia Luciferase; test: Dox-Induced PD1-ss-Gluc Assay; type: cell-based; details: Flp-In 293 T-REx cells, 24 hours with doxycycline; Table 1; read-out: 24 hr Dox Inducible PD1ssGluc 293FRT/TO: Mean IC50
# Source text: Flp-In 293 T-REx™ cells were transfected with pcDNA™5/FRT/TO plasmid inserted with cDNA encoding Gaussia Luciferase fused to the 3′ end of cDNA encoding PD1 signal sequence plus 10 amino acids (N-[…]-C) (SEQ ID NO: 1). Transfected cells were selected for resistance to the selectable markers Hygromycin and Blasticidin to create a stable cell line that contained the PD1-ss+10aa/Gaussia Luciferase cDNA insert whose expression was regulated under the T-REx™ system. The day before assay, cells were trypsinized and plated in 384-well tissue culture plates. The next day, compound dilutions in DMSO/media containing doxycycline were added to the wells and incubated at 37° C., 5% CO2.
# (§1) For chemical structures that include one or more stereoisomers, but are illustrated without indicating stereochemistry, the assay data refers to a mixture of stereoisomers.
# [2] = system: IL-2-FL/Gaussia Luciferase; test: Dox Inducible IL2-FL-Gluc Assay; type: cell-based; details: Table 1; for IC50: Flp-In 293 T-REx cells, 24 hours with doxycycline, read-out: 24 hr Dox Inducible IL2FLGluc 293FRT/TO: Mean IC50; for 24 hr Dox Inducible IL2FLGluc 293FRT/TO: IL2/PD1: ratio of IC50s IL2/PD1
# Source text: Flp-In 293 T-REx™ cells were transfected with pcDNA™5/FRT/TO plasmid inserted with cDNA encoding Gaussia Luciferase fused to the 3′ end of cDNA encoding full length IL-2 (amino acids 1-153). Transfected cells were selected for resistance to the selectable markers Hygromycin and Blasticidin to create a stable cell line that contained the IL-2-FL/Gaussia Luciferase cDNA insert whose expression was regulated under the T-REx™ system. The day before assay, cells were trypsinized and plated in 384-well tissue culture plates. The next day, compound dilutions in DMSO/media containing doxycycline were added to the wells and incubated at 37° C., 5% CO2.
# as §1
# CD47(ss + 10)Gluc = test: Dox-Induced CD47-ss-Gluc Assay; type: cell-based; details: Flp-In 293 T-REx cells, 24 hours with doxycycline; Table 1; read-out: 24 hr Dox Inducible CD47(ss + 10)Gluc 293FRT/TO: Mean IC50
# [3] = system: IL6R-ss+10aa/Gaussia Luciferase; test: Dox-induced IL-6R-ss-Gluc Assay; type: cell-based; details: Table 1; for IC50: Flp-In 293 T-REx cells, 24 hours with doxycycline, read-out: 24hr Dox Inducible IL6R(ss + 10)Gluc 293FRT/TO: Mean IC50; for 24hr Dox Inducible IL6R(ss + 10)Gluc 293FRT/TO: IL6R/PD1: ratio of IC50s IL6R/PD1
# Source text: Flp-In 293 T-REx™ cells were transfected with pcDNATM5/FRT/TO plasmid inserted with cDNA encoding Gaussia Luciferase fused to the 3′ end of cDNA encoding IL6R signal sequence plus 10 amino acids (N-[…]-C). Transfected cells were selected for resistance to the selectable markers Hygromycin and Blasticidin to create a stable cell line that contained the IL6R-ss+10aa/Gaussia Luciferase cDNA insert whose expression was regulated under the T-REx™ system. The day before assay, cells were trypsinized and plated in 384-well tissue culture plates. The next day, compound dilutions in DMSO/media containing doxycycline were added to the wells and incubated at 37° C., 5% CO2.
# as §1
# [4] = system: multiple myeloma cell line NCI-H929; test: H929 Cell Viability Assay; type: cell-based, human; details: Homo sapiens; NCI-H929 cells, 48 hours, Celltiter-Glo; read-out: 48 hr H929 Viability Celltiter-Glo: Mean EC50
# Method: The human multiple myeloma cell line NCI-H929 was cultured in Advanced RPMI 1640 media (Gibco®) supplemented with 6% fetal bovine serum, 2 mM Glutamine, and 1× Penicillin/Streptomycin. On the day of assay, cells were resuspended in RPMI 1640 media supplemented with 10% fetal bovine serum, 2 mM Glutamine, and 1× Penicillin/Streptomycin and plated in 384-well tissue culture plates and treated with compound dilutions in DMSO/media. Plates were incubated at 37° C., 5% CO2 for 48 hours. After 48 hours, Celltiter-Glo® (Promega) was added to each well and luciferase signal was quantified using Tecan Infinite M1000 Pro for cell viability determination.
# as §1
# [5] = system: multiple myeloma cell line U266B1; test: U266 Cell Viability Assay; type: cell-based; details: Homo sapiens, U-266; U266B1 cells, 48 hours, Celltiter-Glo; read-out: 48 hr U266 Viability Celltiter-Glo: Mean EC50
# Method: The human multiple myeloma cell line U266B1 was cultured in RPMI 1640 media supplemented with 10% fetal bovine serum, 2 mM Glutamine, and 1× Penicillin/Streptomycin. Cells were plated in 384-well tissue culture plates and treated with compound dilutions in DMSO/media. Plates were incubated at 37° C., 5% CO2 for 48 hours. After 48 hours, Celltiter-Glo® (Promega) was added to each well and luciferase signal was quantified using Tecan Infinite M1000 Pro for cell viability determination.
# as §1
# [6] = Liver Microsome Stability Assay, mouse; type: in vitro ADME; details: mouse liver microsomes 1.0 mg/mL, 1.0 uM compound, 37° C., 1 mM NADPH
# Method: (§2) Stability of a compound was assessed in the presence of liver microsomes from various sources—mouse, rat, monkey and human liver microsomes. 1.0 uM compound, 0.4% DMSO in 0.1 M Potassium Phosphate with 1.0 mg/mL liver microsomes, were incubated at 37° C. with or without 1 mM NADPH. The samples were quenched at 0, and 30 minutes.
# [7] = Liver Microsome Stability Assay, rat; type: in vitro ADME; details: rat liver microsomes 1.0 mg/mL, 1.0 uM compound, 37° C., 1 mM NADPH
# Method: as §2
# [8] = Liver Microsome Stability Assay, monkey; type: in vitro ADME; details: monkey liver microsomes 1.0 mg/mL, 1.0 uM compound, 37° C., 1 mM NADPH
# Method: as §2
# [9] = Liver Microsome Stability Assay, human; type: in vitro ADME; details: human liver microsomes 1.0 mg/mL, 1.0 uM compound, 37° C., 1 mM NADPH
# Method: as §2
IC50 [1],IC50 [2],IC50 (CD47(ss + 10)Gluc),IC50 [3],EC50 [4],EC50 [5],Liver Microsome Stability (Multiple Species): Mouse - % Remaining after 30 min w/ NADPH (%) [6],Liver Microsome Stability (Multiple Species): Rat - % Remaining after 30 min w/ NADPH (%) [7],Liver Microsome Stability (Multiple Species): Monkey - % Remaining after 30 min w/ NADPH (%) [8],Liver Microsome Stability (Multiple Species): Human - % Remaining after 30 min w/ NADPH (%) [9],SMILES,24 hr Dox Inducible IL2FLGluc 293FRT/TO: IL2/PD1 [2],24hr Dox Inducible IL6R(ss + 10)Gluc 293FRT/TO: IL6R/PD1 [3]
238 nM,> 25000 nM,5870 nM,> 25000 nM,> 25000 nM,> 25000 nM,51%,59%,<1%,1%,COc1cc(C(=O)Nc2nc(/C=C/c3ncn(C(C)C)c3Cl)c(CO)s2)n(Cc2ccnc(F)c2F)c1 [Compound A21],>110,>105
5 nM,2310 nM,2030 nM,2560 nM,> 25000 nM,> 25000 nM,16%,62%,9%,48%,"COc1cc(C(=O)Nc2nc(/C=C/c3ncn(C4CC4)c3Cl)cs2)n(Cc2ccnc(F)c2)c1 [Compound A13, (E)-N-(4-(2-(5-chloro-1-cyclopropyl-1H-imidazol-4-yl)vinyl)thiazol-2-yl)-1-((2-fluoropyridin-4-yl)methyl)-4-methoxy-1H-pyrrole-2-carboxamide]",440,489
112 nM,1430 nM,838 nM,922 nM,,,,,,,"O=C(Nc1nc(/C=C/C2CCC(F)(F)CC2)cs1)c1cccn1Cc1ccnc(F)c1 [Compound B29, (E)-N-(4-(2-(4,4-difluorocyclohexyl)vinyl)thiazol-2-yl)-1-((2-fluoropyridin-4-yl)methyl)-1H-pyrrole-2-carboxamide]",12.0,8
11 nM,1070 nM,933 nM,1060 nM,5450 nM,> 25000 nM,87%,77%,38%,27%,"CC(C)n1cnc(/C=C/c2csc(NC(=O)c3cc(Cl)cn3Cc3ccnc(F)c3)n2)c1C(F)(F)F [Compound A10, (E)-4-chloro-1-((2-fluoropyridin-4-yl)methyl)-N-(4-(2-(1-isopropyl-5-(trifluoromethyl)-1H-imidazol-4-yl)vinyl)thiazol-2-yl)-1H-pyrrole-2-carboxamide]",97,96
11300 nM,> 25000 nM,> 25000 nM,9910 nM,> 25000 nM,> 25000 nM,45%,6%,<1%,<1%,"N[C@H]1CC[C@H](/C=C/c2csc(NC(=O)c3cccn3Cc3ccncc3)n2)CC1 [Compound B18, N-(4-((E)-2-((1r,4r)-4-aminocyclohexyl)vinyl)thiazol-2-yl)-1-(pyridin-4-ylmethyl)-1H-pyrrole-2-carboxamide]",>2.2,1
129 nM,1820 nM,1740 nM,1960 nM,7440 nM,12800 nM,86%,47%,68%,72%,"O=C(Nc1nc(/C=C/c2ncoc2C(F)(F)F)cs1)c1cc(Cl)cn1Cc1ccnc(F)c1 [Compound A8, (E)-4-chloro-1-((2-fluoropyridin-4-yl)methyl)-N-(4-(2-(5-(trifluoromethyl)oxazol-4-yl)vinyl)thiazol-2-yl)-1H-pyrrole-2-carboxamide]",14,15
> 25000 nM,> 25000 nM,> 25000 nM,> 25000 nM,> 25000 nM,> 25000 nM,41%,1%,<1%,9%,"O=C(Nc1nc(/C=C/C2CCOC2)cs1)c1cccn1Cc1ccnc(F)c1 (stereo not shown) [Compound B22, (E)-1-((2-fluoropyridin-4-yl)methyl)-N-(4-(2-(tetrahydrofuran-3-yl)vinyl)thiazol-2-yl)-1H-pyrrole-2-carboxamide]",,
9 nM,3090 nM,2550 nM,2110 nM,17800 nM,> 25000 nM,70%,2%,47%,78%,"N#Cc1c(/C=C/c2csc(NC(=O)c3cc(OC(F)F)cn3Cc3ccnc(F)c3)n2)ncn1C1CC1 [Compound A27, (E)-N-(4-(2-(5-cyano-1-cyclopropyl-1H-imidazol-4-yl)vinyl)thiazol-2-yl)-4-(difluoromethoxy)-1-((2-fluoropyridin-4-yl)methyl)-1H-pyrrole-2-carboxamide]",340.0,235
